Source: patent US7141569B2, “Antiviral pyrazolopyridine compounds” (SmithKline Beecham Corporation, priority 2001, dated 2006)

System: HSV-1
Experiment: HSV-1 infection of Vero 76 cells, viral DNA detected by hybridization capture (chemiluminescence)
Type: cell-based
Conditions: Human alphaherpesvirus 1; HSV-1 in Vero 76 cells, MOI=0.001, compounds incubated 40–48 hours at 37° C.
Protocol: Vero 76 cells were maintained in MEM with Earle's salts, L-glutamine, 8% FBS (Hyclone, A-1111-L) and 100 units/mL Penicillin-100 μg/mL Streptomycin. For assay conditions, FBS was reduced to 2%. Cells are seeded into 96-well tissue culture plates at a density of 5×10^4 cells/well after being incubated for 45 min at 37° C. in the presence of HSV-1 or HSV-2 (MOI=0.001). Test compounds are added to the wells and the plates are incubated at 37° C. for 40–48 hours. Cell lysates are prepared as follows: media was removed and replaced with 150 μL/well 0.2 N NaOH with 1% Igepal CA 630 or NP-40. Plates were incubated up to 14 days at room temperature in a humidified chamber to prevent evaporation.
For the detection probe, a gel-purified, digoxigenin-labeled, 710-bp PCR fragment of the HSV UL-15 sequence was utilized. PCR conditions included 0.5 μM primers, 180 μM dTTP, 20 μM dUTP-digoxigenin (Boehringer Mannheim 1558706), 200 μM each of dATP, dCTP, and dGTP, 1×PCR Buffer II (Perkin Elmer), 2.5 mM MgCl2, 0.025 units/μL of AmpliTaq Gold polymerase (Perkin Elmer), and 5 ng of gel-purified HSV DNA per 100 μL Extension conditions were 10 min at 95° C., followed by 30 cycles of 95° C. for 1 min, 55° C. for 30 sec. and 72° C. for 2 min. The amplification was completed with a 10-min incubation at 72° C. Primers were selected to amplify a 728 bp probe spanning a section of the HSV1 UL15 open reading frame (nucleotides 249–977). Single-stranded transcripts were purified with Promega M13 Wizard kits. The final product was mixed 1:1 with a mixture of 6 M GuSCN, 100 mM EDTA and 200 μg/mL herring sperm DNA and stored at 4° C.
The capture DNA plasmid (HSV UL13 region in pUC) was linearized by cutting with Xba I, denatured for 15 min at 95° C. and diluted immediately into Reacti-Bind DNA Coating Solution (Pierce, 17250, diluted 1:1 with TE buffer, pH 8) at 1 ng/μL 75 μL/well were added to Corning (#3922 or 9690) white 96-well plates and incubated at room temperature for at least 4 hrs before washing twice with 300 μL/well 0.2×SSC/0.05% Tween-20 (SSC/T buffer). The plates were then incubated overnight at room temperature with 150 μL/well 0.2 N NaOH, 1% IGEPAL and 10 μg/mL herring sperm DNA.
Twenty-seven (27) μL of lysate was combined with 45 μL of hybridization solution (final concentration: 3M GuSCN, 50 mM EDTA, 100 μg/ml salmon sperm DNA, 5×Denhardt's solution, 0.25×APE, and 5 ng of the digoxigenin-labeled detection probe). APE is 1.5 M NH4-acetate, 0.15 M NH4H2 phosphate, and 5 mM EDTA adjusted to pH 6.0 Mineral oil (50 μL) was added to prevent evaporation. The hybridization plates were incubated at 95° C. for 10 minutes to denature the DNA, then incubated at 42° C. overnight. The wells were washed 6× with 300 μl/well SSC/T buffer then incubated with 75 μL/well anti-digoxigenin-HRP-conjugated antibody (Boehringer Mannheim 1207733, 1:5000 in TE) for 30 min at room temperature. The wells were washed 6× with 300 μL/well with PBS/0.05% Tween-20 before 75 μL/well SuperSignal LBA substrate (Pierce) was added. The plates were incubated at room temperature for 30 minutes and chemiluminescence was measured in a Wallac Victor reader.

SMILES | IC50 [µM]
Fc1ccc(-c2nn3ccc(NC4CCCC4)cc3c2-c2ccnc(NC3CCCC3)n2)cc1 [Example 2, N-Cyclopentyl-3-[2-(cyclopentylamino)-4-pyrimidinyl]-2-(4-fluorophenyl)pyrazolo[1,5-α]pyridin-5-amine] | 0.5
Nc1ccn2nc(-c3ccc(F)cc3)c(-c3ccnc(NC4CCCC4)n3)c2c1 [Example 3, 3-[2-(Cyclopentylamino)-4-pyrimidinyl]2-(4-fluorophenyl)pyrazolo[1,5-α]pyridin-5-amine] | 5
CS(=O)(=O)Nc1ccn2nc(-c3ccc(F)cc3)c(-c3ccnc(NC4CCCC4)n3)c2c1 [Example 4, N-[3-[2-(Cyclopentylamino)-4-pyrimidinyl]-2-(4-fluorophenyl)pyrazolo[1,5-α]pyridin-5-yl]methanesulfonamide] | 2
Nc1ccc2c(-c3ccnc(NC4CCCC4)n3)c(-c3ccc(F)cc3)nn2c1 [Example 5, 3-[2-(cyclopentylamino)-4-pyrimidinyl]-2-(4-fluorophenyl)pyrazolo[1,5-α]pyridin-6-amine] | 0.24
Fc1ccc(-c2nn3cc(NC4CCCC4)ccc3c2-c2ccnc(NC3CCCC3)n2)cc1 [Example 6, N-Cyclopentyl-3-[2-(cyclopentylamino)-4-pyrimidinyl]-2-(4-fluorophenyl)pyrazolo[1,5-α]pyridin-6-amine] | 1
CC(C)Nc1ccc2c(-c3ccnc(NC4CCCC4)n3)c(-c3ccc(F)cc3)nn2c1 [Example 7, 3-[2-(Cyclopentylamino)-4-pyrimidinyl]-2-(4-fluorophenyl)-N-isopropylpyrazolo[1,5-α]pyridin-6-amine] | 1.2
COCCNc1ccn2nc(-c3ccc(F)cc3)c(-c3ccnc(NC4CCCC4)n3)c2c1 [Example 8, 3-[2-(Cyclopentylamino)-4-pyrimidinyl]-2-(4-fluorophenyl)-N-(2-methoxyethyl)pyrazolo[1,5-α]pyridin-5-amine] | 1
CC(C)Nc1ccn2nc(-c3ccc(F)cc3)c(-c3ccnc(NC4CCCC4)n3)c2c1 [Example 9, 3-[2-(Cyclopentylamino)-4-pyrimidinyl]-2-(4-fluorophenyl)-N-isopropylpyrazolo[1,5-α]pyridin-5-amine] | 2.9
COc1ccc(-c2nn3ccc(NC4CCCC4)cc3c2-c2ccnc(NC3CCCC3)n2)cc1 [Example 10, N-Cyclopentyl-3-[2-(cyclopentylamino)-4-pyrimidinyl]-2-(4-methoxyphenyl)-pyrazolo[1,5-α]pyridin-5-amine] | 0.2
COc1ccc(-c2nn3ccc(NC(C)C)cc3c2-c2ccnc(NC3CCCC3)n2)cc1 [Example 12, 3-[2-(Cyclopentylamino)-4-pyrimidinyl]-N-isopropyl-2-(4-methoxyphenyl)pyrazolo[1,5-α]pyridin-5-amine] | 0.8
Fc1ccc(-c2nn3ccc(NC4CCCC4)c(Br)c3c2-c2ccnc(NC3CCCC3)n2)cc1 [Example 13, 4Bromo-N-cyclopentyl-3-[2-(cyclopentylamino)pyrimidin-4-yl]-2-(4-fluorophenyl)pyrazolo[1,5-α]pyridin-5-amine] | 3
Fc1ccc(-c2nn3ccc(NC4CCCC4)c(Cl)c3c2-c2ccnc(NC3CCCC3)n2)cc1 [Example 14, 4-Chloro-N-cyclopentyl-3-[2-(cyclopentylamino)pyrimidin-4-yl]-2-(4-fluorophenyl)pyrazolo[1,5-α]pyridin-5-amine] | 1.9
COc1ccc(-c2nn3ccc(NC4CCCC4)c(Br)c3c2-c2ccnc(NC3CCCC3)n2)cc1 [Example 15, 4-Bromo-N-cyclopentyl-3-[2-(cyclopentylamino)pyrimidin-4-yl]-2-(4-methoxyphenyl)pyrazolo[1,5-α]pyridin-5-amine] | 3.5
COc1ccc(-c2nn3ccc(NC4CCCC4)c(Cl)c3c2-c2ccnc(NC3CCCC3)n2)cc1 [Example 16, 4-Chloro-N-cyclopentyl-3-[2-(cyclopentylamino)pyrimidin-4-yl]-2-(4-methoxyphenyl)pyrazolo[1,5-α]pyridin-5-amine] | 2.8
CCCCNc1cc(-c2c(-c3ccc(F)cc3)nn3cccc(NCCCC)c23)ccn1 [Example 17, N-Butyl-3-[2-(butylamino)pyridin-4-yl]-2-(4-fluorophenyl)pyrazolo[1,5-α]pyridin-4-amine] | 2.5
Oc1ccc(-c2nn3ccc(NC4CCCC4)cc3c2-c2ccnc(NC3CCCC3)n2)cc1 [Example 18, 4-{5-(Cyclopentylamino)-3-[2-(cyclopentylamino)-4-pyrimidinyl]pyrazolo[1,5-α]pyridin-2-yl}phenol] | 1.2
CC(C)COc1ccc(-c2nn3ccc(NC4CCCC4)cc3c2-c2ccnc(NC3CCCC3)n2)cc1 [Example 19, N-Cyclopentyl-3-[2-(cyclopentylamino)-4-pyrimidinyl]-2-(4-isobutoxyphenyl)pyrazolo[1,5-α]pyridin-5-amine] | 0.5
c1cc(-c2c(-c3ccc(OCC4CC4)cc3)nn3ccc(NC4CCCC4)cc23)nc(NC2CCCC2)n1 [Example 20, N-Cyclopentyl-3-[2-(cyclopentylamino)-4-pyrimidinyl]-2-[4-(cyclopropylmethoxy)phenyl]pyrazolo[1,5-α]pyridin-5-amine] | 0.3
